Measured values reported in patent US20250171457A1, “NITROGEN-CONTAINING HETEROCYCLIC COMPOUND HAVING NRF2 ACTIVATION EFFECT” (CHUGAI SEIYAKU KABUSHIKI KAISHA, priority 2022, published 2025).

Tested on: Nrf2 transcriptional activity (pARE-Luc reporter) in HepG2 cells
Assay: In vitro Nrf2 transcriptional activity measurement by ARE-dependent reporter assay in HepG2 cell
Format: cell-based, human
Conditions: Homo sapiens; HepG2 cells transfected with pARE-Luc, 4 hours at 37° C.; luciferase activity of Example 1-54 or Example 17-23 at 3.75 μM defined as 100%
Method in brief: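 Luminescence readout (Bright-Glo) after 4 h, 37° C compound exposure of HepG2 cells carrying the ARE-luciferase vector pGL4.37. Each well converted to % response versus reference compound at 3.75 μM, and EC50 derived from dose-response curves.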

First: Cn1ccc2cc(Cl)c(C(=O)N3COc4c(cccc4-c4cc(N5CCOCC5)c(C(=O)O)cc4F)C3)cc21 [Compound 13-12, 4-[3-(5-Chloro-1-methylindole-6-carbonyl)-2,4-dihydro-1,3-benzoxazin-8-yl]-5-fluoro-2-morpholin-4-ylbenzoic acid]
Second: Cn1ncc2cc(Cl)c(C(=O)N3COc4c(cccc4-c4cc(N5CCOCC5)c(C(=O)O)cc4F)C3)cc21 [Compound 13-15, 4-[3-(5-Chloro-1-methylindazole-6-carbonyl)-2,4-dihydro-1,3-benzoxazin-8-yl]-5-fluoro-2-morpholin-4-ylbenzoic acid]
The EC50 of the first is 1.7-fold higher: 17 nM for the first, 10 nM for the second.

First: Cn1ccc2c(C(=O)N3COc4c(cccc4-c4cc(N5CCOCC5)c(C(=O)O)cc4F)C3)c(Cl)cnc21 [Compound 13-13, 4-[3-(5-Chloro-1-methylpyrrolo[2,3-b]pyridine-4-carbonyl)-2,4-dihydro-1,3-benzoxazin-8-yl]-5-fluoro-2-morpholin-4-ylbenzoic acid]
Second: O=C(O)c1cc(F)c(-c2cccc3c2OCN(C(=O)c2c(Cl)ccc4cc(Cl)cnc24)C3)cc1N1CCOCC1 [Compound 13-14, 4-[3-(3,7-Dichloroquinoline-8-carbonyl)-2,4-dihydro-1,3-benzoxazin-8-yl]-5-fluoro-2-morpholin-4-ylbenzoic acid]
The EC50 of the first is 1.8-fold lower: 7.1 nM for the first, 13 nM for the second. The first is the more potent here.

Compared with COc1cc(Cl)c(C(=O)N2COc3c(cccc3-c3cc(N4CCOCC4)c(C(=O)O)cc3F)C2)cc1OC [Compound 13-17, 4-[3-(2-Chloro-4,5-dimethoxybenzoyl)-2,4-dihydro-1,3-benzoxazin-8-yl]-5-fluoro-2-morpholin-4-ylbenzoic acid], Cn1cc(-c2cc(Cl)c(C(=O)N3COc4c(cccc4-c4cc(N5CCOCC5)c(C(=O)O)cc4F)C3)c(Cl)c2)cn1 [Compound 13-19, 4-[3-[2,6-Dichloro-4-(1-methylpyrazol-4-yl)benzoyl]-2,4-dihydro-1,3-benzoxazin-8-yl]-5-fluoro-2-morpholin-4-ylbenzoic acid] is 3.7-fold lower in EC50: 5.9 nM for the first, 1.6 nM for the second.

Going from Cn1cc(-c2cc(Cl)c(C(=O)N3CSc4c(cccc4-c4cc(N5CCOCC5)c(C(=O)O)cc4F)C3)c(Cl)c2)cn1 [Compound 13-18, 4-[3-[2,6-Dichloro-4-(1-methylpyrazol-4-yl)benzoyl]-2,4-dihydro-1,3-benzothiazin-8-yl]-5-fluoro-2-morpholin-4-ylbenzoic acid] to Cn1cc(-c2cc(Cl)c(C(=O)N3CNc4c(cccc4-c4ccc(C(=O)O)c(N5CCOCC5)c4)C3)c(Cl)c2)cn1 [Compound 14-5, 4-[3-[2,6-Dichloro-4-(1-methylpyrazol-4-yl)benzoyl]-2,4-dihydro-1H-quinazolin-8-yl]-2-morpholin-4-ylbenzoic acid], the EC50 falls from 21 nM to 3.1 nM (6.8-fold). The second is the more potent here.

Compared with Cc1cc(-c2cccc3c2OCN(C(=O)c2c(Cl)cc(-c4cnn(C)c4)cc2Cl)C3)cc(N2CCOCC2)c1C(=O)O [Compound 13-20, 4-[3-[2,6-Dichloro-4-(1-methylpyrazol-4-yl)benzoyl]-2,4-dihydro-1,3-benzoxazin-8-yl]-2-methyl-6-morpholin-4-ylbenzoic acid], [2H]C1([2H])c2cccc(-c3ccc(C(=O)O)c(N4CCOCC4)c3)c2OCN1C(=O)c1c(Cl)cc(-c2cnn(C)c2)cc1Cl [Compound 14-7, 4-[4,4-Dideuterio-3-[2,6-dichloro-4-(1-methylpyrazol-4-yl)benzoyl]-2H-1,3-benzoxazin-8-yl]-2-morpholin-4-ylbenzoic acid] is 2.9-fold lower in EC50: 7.2 nM for the first, 2.5 nM for the second. The second is the more potent here.

Compared with Cn1cc(-c2cc(Cl)c(C(=O)N3COc4c(cccc4-c4cc(N5CC6COCC6C5)c(C(=O)O)cc4F)C3)c(Cl)c2)cn1 (centres unmarked) [Compound 14-2, 2-(1,3,3a,4,6,6a-Hexahydrofuro[3,4-c]pyrrol-5-yl)-4-[3-[2,6-dichloro-4-(1-methylpyrazol-4-yl)benzoyl]-2,4-dihydro-1,3-benzoxazin-8-yl]-5-fluorobenzoic acid], COC[C@H](O)Cn1cc(-c2cc(Cl)c(C(=O)N3COc4c(cccc4-c4cc(N5CCOCC5)c(C(=O)O)cc4F)C3)c(Cl)c2)cn1 [Compound 15-3, 4-[3-[2,6-Dichloro-4-[1-[(2R)-2-hydroxy-3-methoxypropyl]pyrazol-4-yl]benzoyl]-2,4-dihydro-1,3-benzoxazin-8-yl]-5-fluoro-2-morpholin-4-ylbenzoic acid] is 4.3-fold lower in EC50: 6.5 nM for the first, 1.5 nM for the second.

Compared with Cn1cc(-c2cc(Cl)c(C(=O)N3COc4c(cccc4-c4ccc(C(=O)O)c(N5CCC(F)(F)CC5)c4)C3)c(Cl)c2)cn1 [Compound 14-3, 4-[3-[2,6-Dichloro-4-(1-methylpyrazol-4-yl)benzoyl]-2,4-dihydro-1,3-benzoxazin-8-yl]-2-(4,4-difluoropiperidin-1-yl)benzoic acid], C[C@H](O)Cn1cc(-c2cc(Cl)c(C(=O)N3COc4c(cccc4-c4ccc(C(=O)O)c(N5CCOCC5)c4)C3)c(Cl)c2)cn1 [Compound 15-2, 4-[3-[2,6-Dichloro-4-[1-[(2S)-2-hydroxypropyl]pyrazol-4-yl]benzoyl]-2,4-dihydro-1,3-benzoxazin-8-yl]-2-morpholin-4-ylbenzoic acid] is 1.8-fold higher in EC50: 12 nM for the first, 21 nM for the second.

Going from Cn1cc(-c2cc(Cl)c(C(=O)N3Cc4cccc(-c5ccc(C(=O)O)c(N6CCOCC6)c5)c4C(=O)N3)c(Cl)c2)cn1 [Compound 14-4, 4-[2-[2,6-Dichloro-4-(1-methylpyrazol-4-yl)benzoyl]-4-oxo-1,3-dihydrophthalazin-5-yl]-2-morpholin-4-ylbenzoic acid] to Cn1cc(-c2cc(Cl)c(C(=O)N3Cc4cccc(-c5ccc(C(=O)O)c(N6CCOCC6)c5)c4NC3=O)c(Cl)c2)cn1 [Compound 14-6, 4-[3-[2,6-Dichloro-4-(1-methylpyrazol-4-yl)benzoyl]-2-oxo-1,4-dihydroquinazolin-8-yl]-2-morpholin-4-ylbenzoic acid], the EC50 rises from 3.8 nM to 20 nM (5.3-fold). The first is the more potent here.

First: Cn1cc(-c2cc(Cl)c(C(=O)N3Cc4cccc(-c5ccc(C(=O)O)c(N6CCOCC6)c5)c4CO3)c(Cl)c2)cn1 [Compound 14-8, 4-[3-[2,6-Dichloro-4-(1-methylpyrazol-4-yl)benzoyl]-1,4-dihydro-2,3-benzoxazin-8-yl]-2-morpholin-4-ylbenzoic acid]
Second: CC(C)(O)Cn1cc(-c2cc(Cl)c(C(=O)N3COc4c(cccc4-c4ccc(C(=O)O)c(N5CCOCC5)c4)C3)c(Cl)c2)cn1 [Compound 15-1, 4-[3-[2,6-Dichloro-4-[1-(2-hydroxy-2-methylpropyl)pyrazol-4-yl]benzoyl]-2,4-dihydro-1,3-benzoxazin-8-yl]-2-morpholin-4-ylbenzoic acid]
The EC50 of the first is 14-fold higher: 70 nM for the first, 4.9 nM for the second.

First: COCCN1CCN(c2cc(Cl)c(C(=O)N3COc4c(cccc4-c4cc(N5C6CCC5COC6)c(C(=O)O)cc4F)C3)c(Cl)c2)CC1 [Compound 14-9, 4-[3-[2,6-Dichloro-4-[4-(2-methoxyethyl)piperazin-1-yl]benzoyl]-2,4-dihydro-1,3-benzoxazin-8-yl]-5-fluoro-2-(3-oxa-8-azabicyclo[3.2.1]octan-8-yl)benzoic acid]
Second: COC1(C)CC2(CN(c3cc(Cl)c(C(=O)N4COc5c(cccc5-c5cc(N6C7CCC6COC7)c(C(=O)O)cc5F)C4)c(Cl)c3)C2)C1 [Compound 16-2, 4-[3-[2,6-Dichloro-4-(6-methoxy-6-methyl-2-azaspiro[3.3]heptan-2-yl)benzoyl]-2,4-dihydro-1,3-benzoxazin-8-yl]-5-fluoro-2-(3-oxa-8-azabicyclo[3.2.1]octan-8-yl)benzoic acid]
The EC50 of the first is 2.5-fold higher: 3.7 nM for the first, 1.5 nM for the second. The second is the more potent here.

First: COC[C@H](O)Cn1cc(-c2cc(Cl)c(C(=O)N3COc4c(cccc4-c4ccc(C(=O)O)c(N5CCOCC5)c4)C3)c(Cl)c2)cn1 [Compound 15-4, 4-[3-[2,6-Dichloro-4-[1-[(2R)-2-hydroxy-3-methoxypropyl]pyrazol-4-yl]benzoyl]-2,4-dihydro-1,3-benzoxazin-8-yl]-2-morpholin-4-ylbenzoic acid]
Second: Cn1cc(-c2cc(Cl)c(C(=O)N3COc4c(cccc4-c4ccc(-c5nnn[nH]5)c(N5CCOCC5)c4)C3)c(Cl)c2)cn1 [Compound 16-5, [2,6-Dichloro-4-(1-methylpyrazol-4-yl)phenyl]-[8-[3-morpholin-4-yl-4-(1H-tetrazol-5-yl)phenyl]-2,4-dihydro-1,3-benzoxazin-3-yl]methanone]
The EC50 of the first is 29-fold lower: 6.8 nM for the first, 200 nM for the second. The first is the more potent here.

Compared with CC1(O)CC2(CN(c3cc(Cl)c(C(=O)N4COc5c(cccc5-c5cc(N6C7CCC6COC7)c(C(=O)O)cc5F)C4)c(Cl)c3)C2)C1 [Compound 16-1, 4-[3-[2,6-Dichloro-4-(6-hydroxy-6-methyl-2-azaspiro[3.3]heptan-2-yl)benzoyl]-2,4-dihydro-1,3-benzoxazin-8-yl]-5-fluoro-2-(3-oxa-8-azabicyclo[3.2.1]octan-8-yl)benzoic acid], COC1CN(c2cc(Cl)c(C(=O)N3COc4c(cccc4-c4cc(N5C6CCC5COC6)c(C(=O)NS(C)(=O)=O)cc4F)C3)c(Cl)c2)C1 [Compound 16-6, 4-[3-[2,6-Dichloro-4-(3-methoxyazetidin-1-yl)benzoyl]-2,4-dihydro-1,3-benzoxazin-8-yl]-5-fluoro-N-methylsulfonyl-2-(3-oxa-8-azabicyclo[3.2.1]octan-8-yl)benzamide] is 13-fold higher in EC50: 13 nM for the first, 170 nM for the second. The first is the more potent here.

Going from C[C@@H]1CN(C)CCN1c1cc(Cl)c(C(=O)N2COc3c(cccc3-c3cc(N4C5CCC4COC5)c(-c4n[nH]c(=O)o4)cc3F)C2)c(Cl)c1 [Compound 16-3, 5-[4-[3-[2,6-Dichloro-4-[(2R)-2,4-dimethylpiperazin-1-yl]benzoyl]-2,4-dihydro-1,3-benzoxazin-8-yl]-5-fluoro-2-(3-oxa-8-azabicyclo[3.2.1]octan-8-yl)phenyl]-3H-1,3,4-oxadiazol-2-one] to C[C@@H]1CN(C)CCN1c1cc(Cl)c(C(=O)N2COc3c(cccc3-c3cc(N4C5CCC4COC5)c(-c4nnn[nH]4)cc3F)C2)c(Cl)c1 [Compound 16-4, [2,6-Dichloro-4-[(2R)-2,4-dimethylpiperazin-1-yl]phenyl]-[8-[2-fluoro-5-(3-oxa-8-azabicyclo[3.2.1]octan-8-yl)-4-(1H-tetrazol-5-yl)phenyl]-2,4-dihydro-1,3-benzoxazin-3-yl]methanone], the EC50 rises from 17 nM to 110 nM (6.5-fold). The first is the more potent here.
